Test results as given in patent US6737383B1, “Herbicidal oxadiazolidines” (priority 1999, dated 2004).

Tests used:
[1] = tested on: blackgrass; assay: Test B pre/postemergence blackgrass; assay type: in vivo, Alopecurus myosuroides
In short: (§1)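 Response is a visual 0-to-10 score relative to untreated plants, where 0 means no effect and 10 means complete control, taken twelve to sixteen days after application. Treatments went onto soil at planting and onto foliage of 1- to 4-leaf plants, using a surfactant-containing non-phytotoxic solvent.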

[2] = tested on: surinam grass; assay: Test B pre/postemergence surinam grass; assay type: in vivo, Brachiaria decumbens
In short: as §1

[3] = tested on: cocklebur; assay: Test B pre/postemergence cocklebur; assay type: in vivo, Xanthium strumarium
In short: as §1

[4] = tested on: corn; assay: Test B pre/postemergence corn; assay type: in vivo, Zea mays
In short: as §1

[5] = tested on: crabgrass; assay: Test B pre/postemergence crabgrass; assay type: in vivo, Digitaria sanguinalis
In short: as §1

[6] = tested on: giant foxtail; assay: Test B pre/postemergence giant foxtail; assay type: in vivo, Setaria faberii
In short: as §1

[7] = tested on: morningglory; assay: Test B pre/postemergence morningglory; assay type: in vivo, Ipomoea hederacea
In short: as §1

[8] = tested on: pigweed; assay: Test B pre/postemergence pigweed; assay type: in vivo, Amaranthus retroflexus
In short: as §1

[9] = tested on: rape; assay: Test B pre/postemergence rape; assay type: in vivo, Brassica napus
In short: as §1

[10] = tested on: soybean; assay: Test B pre/postemergence soybean; assay type: in vivo, Glycine max
In short: as §1

[11] = tested on: sugar beet; assay: Test B pre/postemergence sugar beet; assay type: in vivo, Beta vulgaris
In short: as §1

[12] = tested on: velvetleaf; assay: Test B pre/postemergence velvetleaf; assay type: in vivo, Abutilon theophrasti
In short: as §1

[13] = tested on: wheat; assay: Test B pre/postemergence wheat; assay type: in vivo, Triticum aestivum
In short: as §1

[14] = tested on: wild oat; assay: Test B pre/postemergence wild oat; assay type: in vivo, Avena fatua
In short: as §1

[15] = tested on: purple nutsedge; assay: Test B pre/postemergence purple nutsedge; assay type: in vivo, Cyperus rotundus
In short: as §1

[16] = tested on: rice; assay: Test B flood test rice; assay type: in vivo, Oryza sativa
In short: (§2)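 Read-out is a visual response score from 0 (no effect) to 10 (complete control), assigned by comparison with untreated controls. Treatment was applied at the 2-leaf stage, and plants stayed in the greenhouse for twelve to sixteen days before scoring.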

[17] = tested on: smallflower flatsedge; assay: Test B flood test smallflower flatsedge; assay type: in vivo, Cyperus difformis
In short: as §2

[18] = tested on: duck salad; assay: Test B flood test duck salad; assay type: in vivo, Heteranthera limosa; conditions: for Plant response rating, Ducksalad: scale 0 to 10, 0 is no effect, 10 is complete control; for Ducksalad plant response rating: scale of 0 to 10 where 0 is no effect and 10 is complete control
In short: as §2

[19] = tested on: bamyardgrass; assay: Test B flood test barnyardgrass; assay type: in vivo, Echinochloa crus-galli; conditions: for Plant response rating, Barnyardgrass: scale 0 to 10, 0 is no effect, 10 is complete control; for Barnyardgrass plant response rating: scale of 0 to 10 where 0 is no effect and 10 is complete control
In short: as §2

[20] = Postemergence, Rate 125 g/ha, scale 0 to 10, 0 is no effect, 10 is complete control
[21] = Postemergence, Rate 250 g/ha, scale 0 to 10, 0 is no effect, 10 is complete control
[22] = Postemergence, Rate 500 g/ha, scale of 0 to 10 where 0 is no effect and 10 is complete control
[23] = Preemergence, Rate 62 g/ha, scale 0 to 10 (0 no effect, 10 complete control)
[24] = Preemergence, Rate 125 g/ha, scale of 0 to 10 where 0 is no effect and 10 is complete control
[25] = Preemergence, Rate 250 g/ha, scale of 0 to 10 where 0 is no effect and 10 is complete control
[26] = Preemergence, Rate 500 g/ha, scale 0 to 10, 0 is no effect, 10 is complete control
[27] = Rate 62 g/ha, Postemergence, scale of 0 to 10 where 0 is no effect and 10 is complete control
[28] = Preemergence, Rate 250 g/ha, scale 0 to 10, 0 is no effect, 10 is complete control
[29] = Postemergence section (flood test species), Rate 500 g/ha, scale of 0 to 10 where 0 is no effect and 10 is complete control
[30] = flood test species, listed under Postemergence, Rate 250 g/ha, scale 0 to 10, 0 is no effect, 10 is complete control
[31] = Postemergence (flood test), Rate 125 g/ha
[32] = Postemergence section (flood test species), Rate 500 g/ha
[33] = Rate 62 g/ha, Postemergence (flood test species)
[34] = flood test species, listed under Postemergence, Rate 250 g/ha

C=C(C)CCn1c(=O)on(C(=O)N(c2ccccc2)C(C)C)c1=O [Compound 418]
9: Giant foxtail plant response rating [6, 22] | Rape plant response rating [9, 26]
6: Blackgrass plant response rating [1, 22] | B. signalgrass plant response rating [2, 25] | B. signalgrass plant response rating ([2]; Preemergence, Rate 500 g/ha, scale of 0 to 10 where 0 is no effect and 10 is complete control) | Crabgrass plant response rating [5, 22] | Plant response rating, Crabgrass [5, 23] | Soybean plant response rating [10, 22] | Velvetleaf plant response rating [12, 26]
0: Blackgrass plant response rating [1, 26] | Plant response rating, B. signalgrass [2, 20] | Plant response rating, B. signalgrass [2, 21] | Plant response rating, B. signalgrass [2, 23] | B. signalgrass plant response rating [2, 27] | Plant response rating, Cocklebur [3, 20] | Plant response rating, Cocklebur [3, 21] | Cocklebur plant response rating [3, 22] | Plant response rating, Cocklebur [3, 23] | Plant response rating, Cocklebur [3, 24] | Cocklebur plant response rating [3, 28] | Cocklebur plant response rating [3, 26] | Cocklebur plant response rating [3, 27] | Plant response rating, Corn [4, 20] | Plant response rating, Corn [4, 21] | Corn plant response rating [4, 22] | Plant response rating, Corn [4, 23] | Plant response rating, Corn [4, 24] | Corn plant response rating [4, 27] | Plant response rating, Crabgrass [5, 20] | Crabgrass plant response rating [5, 27] | Plant response rating, Giant foxtail [6, 20] | Giant foxtail plant response rating [6, 27] | Plant response rating, Morningglory [7, 23] | Plant response rating, Morningglory [7, 24] | Morningglory plant response rating [7, 28] | Morningglory plant response rating [7, 26] | Plant response rating, Redroot pigweed [8, 21] | Redroot pigweed plant response rating [8, 22] | Plant response rating, Rape [9, 21] | Rape plant response rating [9, 22] | Plant response rating, Rape [9, 23] | Plant response rating, Rape [9, 24] | Rape plant response rating [9, 28] | Plant response rating, Soybean [10, 23] | Plant response rating, Soybean [10, 24] | Soybean plant response rating [10, 28] | Soybean plant response rating [10, 26] | Plant response rating, Sugarbeets [11, 21] | Sugarbeets plant response rating [11, 22] | Plant response rating, Sugarbeets [11, 23] | Plant response rating, Velvetleaf [12, 21] | Velvetleaf plant response rating [12, 22] | Plant response rating, Velvetleaf [12, 23] | Wheat plant response rating [13, 22] | Plant response rating, Wheat [13, 23] | Plant response rating, Wheat [13, 24] | Wheat plant response rating [13, 28] | Plant response rating, Wild oats [14, 23] | Plant response rating, Wild oats [14, 24] | Wild oats plant response rating [14, 28] | Wild oats plant response rating [14, 26] | Plant response rating, Nutsedge [15, 21] | Nutsedge plant response rating [15, 22] | Plant response rating, Nutsedge [15, 23] | Plant response rating, Nutsedge [15, 24] | Nutsedge plant response rating [15, 28] | Nutsedge plant response rating [15, 26] | Rice plant response rating [16, 29] | Plant response rating, Rice [16, 30] | Plant response rating, Ducksalad [18, 31] | Ducksalad plant response rating [18, 33] | Plant response rating, Barnyardgrass [19, 31] | Barnyardgrass plant response rating [19, 32] | Barnyardgrass plant response rating [19, 33] | Plant response rating, Barnyardgrass [19, 34]
3: Plant response rating, B. signalgrass [2, 24] | Plant response rating, Crabgrass [5, 21] | Plant response rating, Redroot pigweed [8, 24] | Plant response rating, Velvetleaf [12, 24] | Wild oats plant response rating [14, 22]
5: Velvetleaf plant response rating [12, 28]
7: Blackgrass plant response rating [1, 25] | Plant response rating, Giant foxtail [6, 23]
4: Plant response rating, Blackgrass [1, 20] | Plant response rating, Blackgrass [1, 21] | Plant response rating, Blackgrass [1, 23] | Plant response rating, Blackgrass [1, 24] | Plant response rating, Soybean [10, 21] | S. Flatsedge plant response rating [17, 29] | Plant response rating, S. Flatsedge [17, 30]
2: Blackgrass plant response rating [1, 27] | B. signalgrass plant response rating [2, 22] | Corn plant response rating [4, 28] | Plant response rating, Redroot pigweed [8, 23] | Plant response rating, Sugarbeets [11, 24] | Sugarbeets plant response rating [11, 28] | Sugarbeets plant response rating [11, 26] | Wheat plant response rating [13, 26] | Ducksalad plant response rating [18, 32] | Plant response rating, Ducksalad [18, 34]
8: Plant response rating, Crabgrass [5, 24] | Plant response rating, Giant foxtail [6, 21] | Plant response rating, Giant foxtail [6, 24] | Plant response rating, Morningglory [7, 21] | Redroot pigweed plant response rating [8, 28] | Redroot pigweed plant response rating [8, 26]
10: Crabgrass plant response rating [5, 28] | Crabgrass plant response rating [5, 26] | Giant foxtail plant response rating [6, 28] | Giant foxtail plant response rating [6, 26] | Morningglory plant response rating [7, 22]
